Measured values reported in ChEMBL document CHEMBL1141046, “Design, synthesis and structure-activity relationship of a series of fragment analogues of antistasin (ATS) and ghilantens (GLS)” (Bioorg Med Chem Lett, 2005).
Square brackets hold non-standard residues; d marks the D form. Peptide text beside a SMILES is read from it. Orn = NCCC[C@H](N)C(=O)O

Experiments:
[1] = Anticoagulant activity of compound in respect to APTT in human poor platelet plasma (PPP) at 528.94 nM concentration was measured by the Amelung coagulometer KC4A apparatus; type: functional
[2] = Anticoagulant activity of compound in respect to APTT in human poor platelet plasma (PPP) at 705.25 nM concentration was measured by the Amelung coagulometer KC4A apparatus; type: functional
[3] = Anticoagulant activity of compound in respect to APTT in human poor platelet plasma (PPP) at 881.56 nM concentration was measured by the Amelung coagulometer KC4A apparatus; type: functional
[4] = Anticoagulant activity of compound in respect to APTT in human poor platelet plasma (PPP) at 418.91 nM concentration was measured by the Amelung coagulometer KC4A apparatus; type: functional
Homo sapiens = species on record: Homo sapiens; test: Anticoagulant activity of compound in respect to APTT in human poor platelet plasma (PPP) at a concentration 41.89(nM) of was measured by the Amelung coagulometer KC4A apparatus; type: functional, cell-free
[5] = Anticoagulant activity of compound in respect to APTT in human poor platelet plasma (PPP) at a concentration 272.29(nM) of was measured by the Amelung coagulometer KC4A apparatus; type: functional
[6] = Anticoagulant activity of compound in respect to APTT in human poor platelet plasma (PPP) at a concentration 523.64(nM) of was measured by the Amelung coagulometer KC4A apparatus; type: functional
[7] = Anticoagulant activity of compound in respect to APTT in human poor platelet plasma (PPP) at a concentration 802.24(nM) of was measured by the Amelung coagulometer KC4A apparatus; type: functional
[8] = Concentration for doublingAPTT clotting times of human plasma; type: functional, cell-free
[9] = Anticoagulant activity of compound in respect to APTT in human poor platelet plasma (PPP) at 771 nM concentration was measured by the Amelung coagulometer KC4A apparatus; type: functional
[10] = Anticoagulant activity of compound in respect to APTT in human poor platelet plasma (PPP) at 1156.6 nM concentration was measured by the Amelung coagulometer KC4A apparatus; type: functional
[11] = Anticoagulant activity of compound in respect to APTT in human poor platelet plasma (PPP) at 906.8 nM concentration was measured by the Amelung coagulometer KC4A apparatus; type: functional
[12] = Anticoagulant activity of compound in respect to APTT in human poor platelet plasma (PPP) at 1813.59 nM concentration was measured by the Amelung coagulometer KC4A apparatus; type: functional
[13] = Anticoagulant activity of compound in respect to APTT in human poor platelet plasma (PPP) at 2266.99 nM concentration was measured by the Amelung coagulometer KC4A apparatus; type: functional
[14] = Anticoagulant activity of compound in respect to APTT in human poor platelet plasma (PPP) at 2720.39 nM concentration was measured by the Amelung coagulometer KC4A apparatus; type: functional
[15] = Anticoagulant activity of compound in respect to APTT in human poor platelet plasma (PPP) at 2901.75 nM concentration was measured by the Amelung coagulometer KC4A apparatus; type: functional
[16] = Anticoagulant activity of compound in respect to APTT in human poor platelet plasma (PPP) at 2992.43 nM concentration was measured by the Amelung coagulometer KC4A apparatus; type: functional
[17] = Anticoagulant activity of compound in respect to APTT in human poor platelet plasma (PPP) at 1338.96 nM concentration was measured by the Amelung coagulometer KC4A apparatus; type: functional
[18] = Anticoagulant activity of compound in respect to APTT in human poor platelet plasma (PPP) at 1562.12 nM concentration was measured by the Amelung coagulometer KC4A apparatus; type: functional
[19] = Anticoagulant activity of compound in respect to APTT in human poor platelet plasma (PPP) at 1785.28 nM concentration was measured by the Amelung coagulometer KC4A apparatus; type: functional
[20] = Anticoagulant activity of compound in respect to APTT in human poor platelet plasma (PPP) at 211 nM concentration was measured by the Amelung coagulometer KC4A apparatus; type: functional
[21] = Anticoagulant activity of compound in respect to APTT in human poor platelet plasma (PPP) at 1077.7 nM concentration was measured by the Amelung coagulometer KC4A apparatus; type: functional
[22] = Anticoagulant activity of compound in respect to APTT in human poor platelet plasma (PPP) at 646.61 nM concentration was measured by the Amelung coagulometer KC4A apparatus; type: functional
[23] = Anticoagulant activity of compound in respect to APTT in human poor platelet plasma (PPP) at 290 nM concentration was measured by the Amelung coagulometer KC4A apparatus; type: functional
[24] = Anticoagulant activity of compound in respect to APTT in human poor platelet plasma (PPP) at 894 nM concentration was measured by the Amelung coagulometer KC4A apparatus; type: functional
[25] = Anticoagulant activity of compound in respect to APTT in human poor platelet plasma (PPP) at 1192 nM concentration was measured by the Amelung coagulometer KC4A apparatus; type: functional
[26] = Anticoagulant activity of compound in respect to APTT in human poor platelet plasma (PPP) at 1043.42 nM concentration was measured by the Amelung coagulometer KC4A apparatus; type: functional
[27] = Anticoagulant activity of compound in respect to APTT in human poor platelet plasma (PPP) at 2235.9 nM concentration was measured by the Amelung coagulometer KC4A apparatus; type: functional
[28] = Anticoagulant activity of compound in respect to APTT in human poor platelet plasma (PPP) at 1117.95 nM concentration was measured by the Amelung coagulometer KC4A apparatus; type: functional

Q: Which APTT [1] does the source give for `CC(C)C[C@H](NC(=O)[C@H](CCCCN)NC(=O)[C@H](CCCN=C(N)N)NC(=O)[C@H](CCCCN)NC(=O)[C@@H]1CCCN1C(=O)[C@@H](N)CCCN)C(=O)N[C@H](C(=O)N1CCC[C@H]1C(N)=O)C(C)C` (H-[Orn]PKRKLVP-NH2) [listing 1 of 2 here] here?
A: The APTT was 0.5 s.

Q: And the APTT [2]?
A: Its APTT is 29.3 s.

Q: And the APTT [3]?
A: The APTT was 53.3 s.

Q: With H-RPKLVP-OH as the molecule, how does the APTT [4] read?
A: The APTT was 5.5 s.

Q: And the APTT (Homo sapiens)?
A: Its APTT is “No activity”.

Q: What about the APTT [5] of the same molecule?
A: Its APTT is 3.8 s.

Q: And the APTT [6]?
A: Its APTT is 15.6 s.

Q: What about the APTT [7] of the same molecule?
A: The APTT was 62.4 s.

Q: And the IC50 [8]?
A: The IC50 was 802 nM.

Q: Which IC50 [8] does the source give for H-PKRKLVP-NH2 [listing 1 of 2 here] here?
A: The IC50 was 2900 nM.

Q: For `CC(C)C[C@H](NC(=O)[C@H](CCCCN)NC(=O)[C@H](CCCN=C(N)N)NC(=O)[C@H](CCCCN)NC(=O)[C@@H]1CCCN1C(=O)[C@@H](N)CCCN)C(=O)N[C@H](C(=O)N1CCC[C@H]1C(=O)O)C(C)C` (H-[Orn]PKRKLVP-OH) [listing 1 of 2 here], which APTT [9] is on record?
A: The APTT was 22.2 s.

Q: And the APTT [10]?
A: Its APTT is 28.5 s.

Q: Which IC50 [8] does the source give for `CC(C)C[C@H](NC(=O)[C@H](CCCCN)NC(=O)[C@H](CCCN=C(N)N)NC(=O)[C@H](CCCCN)NC(=O)[C@@H]1CCCN1C(=O)[C@@H](N)CCCN)C(=O)N[C@H](C(=O)N1CCC[C@H]1C(N)=O)C(C)C` (H-[Orn]PKRKLVP-NH2) [listing 2 of 2 here] here?
A: The IC50 was 705 nM.

Q: Which APTT [11] does the source give for H-PKRKLVP-NH2 [listing 2 of 2 here] here?
A: Its APTT is 8.8 s.

Q: And the APTT [12]?
A: Its APTT is 18.6 s.

Q: And the APTT [13]?
A: The APTT was 18.8 s.

Q: What about the APTT [14] of the same molecule?
A: The APTT was 25.5 s.

Q: What about the APTT [15] of the same molecule?
A: Its APTT is 29.8 s.

Q: What about the APTT [16] of the same molecule?
A: The APTT was 32.4 s.

Q: For H-PKRKLVP-OH [listing 1 of 2 here], which APTT [17] is on record?
A: Its APTT is 22.1 s.

Q: What about the APTT [18] of the same molecule?
A: The APTT was 31 s.

Q: What about the APTT [19] of the same molecule?
A: Its APTT is 47.1 s.

Q: With H-PKRKLVP-OH [listing 2 of 2 here] as the molecule, how does the IC50 [8] read?
A: Its IC50 is 1560 nM.

Q: Which APTT [20] does the source give for H-KPKRKLVP-NH2 here?
A: Its APTT is 8.9 s.

Q: And the APTT [21]?
A: The APTT was 57.9 s.

Q: What about the APTT [22] of the same molecule?
A: The APTT was 28.9 s.

Q: What about the IC50 [8] of the same molecule?
A: The IC50 was 647 nM.

Q: For H-KPKRKLVP-OH, which APTT [23] is on record?
A: The APTT was 6.7 s.

Q: And the APTT [24]?
A: The APTT was 21.6 s.

Q: And the APTT [25]?
A: The APTT was 50.9 s.

Q: And the APTT [26]?
A: Its APTT is 24.1 s.

Q: And the APTT [27]?
A: The APTT was 122.8 s.

Q: And the APTT [28]?
A: Its APTT is 30 s.

Q: And the IC50 [8]?
A: The IC50 was 1120 nM.

Q: Which IC50 [8] does the source give for `CC(C)C[C@H](NC(=O)[C@H](CCCCN)NC(=O)[C@H](CCCN=C(N)N)NC(=O)[C@H](CCCCN)NC(=O)[C@@H]1CCCN1C(=O)[C@@H](N)CCCN)C(=O)N[C@H](C(=O)N1CCC[C@H]1C(=O)O)C(C)C` (H-[Orn]PKRKLVP-OH) [listing 2 of 2 here] here?
A: The IC50 was 1160 nM.
